# Data taken from patent US20240287138A1, “CYCLIC PEPTIDES FOR INHIBITING TNF RECEPTOR 1 ACTIVITY” (Merck Sharp & Dohme LLC, priority 2023, published 2024).
# Numbered stars: 1 amine (or outer) side, 2 acyl side, 3 side chain; on linkers, the order of the positions; unused ones are H or OH. Bridge positions count the residues as written; N and C are the ends. Square brackets hold non-standard residues; d marks the D form. Peptide text beside a SMILES is read from it. * marks the point of attachment. Trp(βS-Me,7-OMe) = COc1cccc2c([C@H](C)[C@H](N)C(=O)O)c[nH]c12; Trp(4-Cl) = N[C@@H](Cc1c[nH]c2cccc(Cl)c12)C(=O)O; Trp(7-CN) = N#Cc1cccc2c(C[C@H](N)C(=O)O)c[nH]c12; Trp(7-Cl) = N[C@@H](Cc1c[nH]c2c(Cl)cccc12)C(=O)O; Phe(3-CONH2) = NC(=O)c1cccc(C[C@H](N)C(=O)O)c1; Phe(4-CONH2) = NC(=O)c1ccc(C[C@H](N)C(=O)O)cc1; Phe(4-COOH) = N[C@@H](Cc1ccc(C(=O)O)cc1)C(=O)O; Trp(7-F) = N[C@@H](Cc1c[nH]c2c(F)cccc12)C(=O)O; Trp(7-aza) = N[C@@H](Cc1c[nH]c2ncccc12)C(=O)O; X10 = O=C([C@H](Cc1ccnc2ccccc12)N[*:1])[*:2]; Pip(5R-OH) = O=C(O)[C@@H]1CC[C@@H](O)CN1; X1 = O=C([C@@H]1CC[C@H](N[*:1])C1)[*:2]; dPro(4,4-F2) = O=C(O)[C@H]1CC(F)(F)CN1; Pip(4-aza) = O=C(O)[C@@H]1CNCCN1; hPhe = N[C@@H](CCc1ccccc1)C(=O)O; 4Pal = N[C@@H](Cc1ccncc1)C(=O)O; dHyp = O=C(O)[C@H]1C[C@H](O)CN1; Ahp(2) = CCCCC[C@H](N)C(=O)O; αMeS = C[C@](N)(CO)C(=O)O; NMeA = CN[C@@H](C)C(=O)O; Nle = CCCC[C@H](N)C(=O)O; Ethyl(2-NH2) = NCC*; Sar = CNCC(=O)O
# What was measured:
# [1] = biological target: T1, human soluble TNFR1 (sTNFR1) (Homo sapiens, UniProt P19438); experiment: Human sTNFR1-peptide displacement assay (LanthaScreen Eu TR-FRET binding assay)
# T1 construct: made in house; host or cells: Sf21 (baculovirus)
# T1 sequence (P19438 with tags, fused parts or gaps): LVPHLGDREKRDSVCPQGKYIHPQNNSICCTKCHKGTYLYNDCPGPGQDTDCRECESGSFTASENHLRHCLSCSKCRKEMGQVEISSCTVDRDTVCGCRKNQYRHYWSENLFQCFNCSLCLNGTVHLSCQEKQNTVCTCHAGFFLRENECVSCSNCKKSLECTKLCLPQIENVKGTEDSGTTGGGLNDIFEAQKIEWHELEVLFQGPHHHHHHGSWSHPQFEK
# In short: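 Readout is the 665/615 nm TR-FRET ratio (Eu anti-His donor, streptavidin-Alexa647 acceptor), normalized to DMSO and saturating displacer, fit by Morrison-based five-parameter logistic for Kd^app. His-tagged sTNFR1 (1-211) prebound to 100 nM biotinylated peptide SEQ ID NO.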
# [2] = biological target: T2, human TNFR1 extracellular domain (ECD) protein (Homo sapiens, UniProt P19438); experiment: SPR binding affinity to captured human TNFR1 ECD
# T2 construct: HRV 3C protease cleavage site (C); 6His (C, cleaved yes); made in house; host or cells: Sf21 insect cells (baculovirus), secreted
# T2 sequence (P19438 30-211): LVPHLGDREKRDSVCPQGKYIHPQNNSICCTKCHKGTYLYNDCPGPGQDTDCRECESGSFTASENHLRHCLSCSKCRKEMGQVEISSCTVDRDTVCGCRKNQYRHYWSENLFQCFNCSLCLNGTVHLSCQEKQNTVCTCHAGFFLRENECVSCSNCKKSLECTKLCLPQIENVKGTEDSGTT
# In short: (§1)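 Biotinylated human TNFR1 or TNFR2 ECD (C-terminal Avi-tag, Sf21-expressed) captured on a regenerable streptavidin chip; peptide analytes flowed in 10 mM HEPES pH 7.4, 150 mM NaCl, 3 mM EDTA, 0.05% P20, 2% DMSO. kon and koff measured; affinity calculated from the rate constants.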
# [3] = biological target: T3, human TNFR2 ECD protein (Homo sapiens, UniProt P20333); experiment: SPR off-target binding (selectivity) to human TNFR2 ECD
# T3 construct: HRV 3C protease cleavage site (C); 6His (C, cleaved yes); made in house; host or cells: Sf21 insect cells (baculovirus), secreted
# T3 sequence (P20333 23-257): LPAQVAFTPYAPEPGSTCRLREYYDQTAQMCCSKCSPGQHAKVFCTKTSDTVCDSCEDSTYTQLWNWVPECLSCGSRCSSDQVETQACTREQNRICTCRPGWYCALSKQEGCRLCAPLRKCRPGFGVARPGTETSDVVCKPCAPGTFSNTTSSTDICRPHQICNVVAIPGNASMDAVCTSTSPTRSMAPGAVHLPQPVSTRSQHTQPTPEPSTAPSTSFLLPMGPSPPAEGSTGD
# In short: as §1
Structure (SMILES),Kd [1] [nM],Kd [2] [nM],Kd [3] [nM],IC50 [1] [nM]
"CCCC[C@@H]1NC(=O)[C@@H]2CC[C@@H](C2)NC(=O)[C@H]([C@@H](C)c2c[nH]c3c(OC)cccc23)NC(=O)CN(C)C(=O)[C@H](Cc2ccc(O)cc2)NC(=O)[C@H](Cc2ccc(C(=O)O)cc2)NC(=O)[C@](C)(CO)NC(=O)[C@H](Cc2c[nH]c3c(Cl)cccc23)NC(=O)[C@H](Cc2ccncc2)NC(=O)[C@H](CC(N)=O)NC(=O)[C@H]2CC(F)(F)CN2C(=O)[C@H](Cc2c[nH]c3ccccc23)NC(=O)[C@@H]2CNCCN2C(=O)[C@H](Cc2ccncc2)NC1=O [SEQ ID NO. 266] (cyclo([4Pal][Trp(7-Cl)][αMeS][Phe(4-COOH)]Y[Sar][Trp(βS-Me,7-OMe)][X1][Nle][4Pal][Pip(4-aza)]W[dPro(4,4-F2)]N))",0.45,0.06,> 1000,
"COc1cccc2c([C@H](C)[C@@H]3NC(=O)CN(C)C(=O)[C@H](Cc4ccc(C(=O)O)cc4)NC(=O)[C@H](Cc4ccc(C(N)=O)cc4)NC(=O)[C@](C)(CO)NC(=O)[C@H](Cc4c[nH]c5c(Cl)cccc45)NC(=O)[C@H](Cc4ccc(C(=O)O)cc4)NC(=O)[C@H](CC(N)=O)NC(=O)[C@H]4C[C@H](O)CN4C(=O)[C@H](Cc4c[nH]c5ncccc45)NC(=O)[C@@H]4CC[C@@H](O)CN4C(=O)[C@H](Cc4ccncc4)NC(=O)[C@H](COCCN)NC(=O)[C@@H]4CC[C@@H](C4)NC3=O)c[nH]c12 [SEQ ID NO. 148] (cyclo([4Pal][Pip(5R-OH)][Trp(7-aza)][dHyp]N[Phe(4-COOH)][Trp(7-Cl)][αMeS][Phe(4-CONH2)][Phe(4-COOH)][Sar][Trp(βS-Me,7-OMe)][X1]S(Ethyl(2-NH2))))",0.9,1.1,> 1000,
C[C@@]1(CO)NC(=O)[C@H](Cc2c[nH]c3ncccc23)NC(=O)[C@H](Cc2ccncc2)NC(=O)[C@H](CC(N)=O)NC(=O)[C@H]2CCCN2C(=O)[C@H](Cc2ccnc3ccccc23)NC(=O)[C@H](CO)NC(=O)[C@H](Cc2ccncc2)NC(=O)[C@H](CCC(N)=O)NC(=O)CSC[C@@H](C(N)=O)NC(=O)[C@H](Cc2c[nH]c3cccc(Cl)c23)NC(=O)[C@@H]2CCCN2C(=O)[C@H](Cc2ccc(O)cc2)NC(=O)[C@H](Cc2ccc(C(=O)O)cc2)NC1=O [SEQ ID NO. 278] ({CH2CO}-Q[4Pal]S[X10][dP]N[4Pal][Trp(7-aza)][αMeS][Phe(4-COOH)]YP[Trp(4-Cl)]C-NH2; thioether N-14),,12.8,> 1000,8.69
"CCCCC[C@@H]1NC(=O)[C@@H]2CC[C@@H](C2)NC(=O)[C@H]([C@@H](C)c2c[nH]c3c(OC)cccc23)NC(=O)CN(C)C(=O)[C@H](Cc2cccc(C(N)=O)c2)NC(=O)[C@H](Cc2ccc(C(N)=O)cc2)NC(=O)[C@](C)(CO)NC(=O)[C@H](Cc2c[nH]c3c(C#N)cccc23)NC(=O)[C@H](Cc2ccncc2)NC(=O)[C@H](CC(N)=O)NC(=O)[C@H]2C[C@H](O)CN2C(=O)[C@H](Cc2c[nH]c3ccccc23)NC(=O)[C@@H]2CNCCN2C(=O)[C@H](Cc2ccncc2)NC1=O [SEQ ID NO. 174] (cyclo([4Pal][Trp(7-CN)][αMeS][Phe(4-CONH2)][Phe(3-CONH2)][Sar][Trp(βS-Me,7-OMe)][X1][Ahp(2)][4Pal][Pip(4-aza)]W[dHyp]N))",0.06,0.01,> 1000,
C[C@H]1C(=O)N[C@@H](CC(N)=O)C(=O)N[C@@H](Cc2ccncc2)C(=O)N[C@@H](Cc2c[nH]c3ccccc23)C(=O)N[C@@](C)(CO)C(=O)N[C@@H](Cc2ccc(C(=O)O)cc2)C(=O)N[C@@H](Cc2ccc(O)cc2)C(=O)N(C)CC(=O)N[C@@H](Cc2c[nH]c3ccccc23)C(=O)N[C@H](C(N)=O)CSCC(=O)N[C@@H](CCc2ccccc2)C(=O)N[C@@H](Cc2ccc(O)cc2)C(=O)N[C@@H](CO)C(=O)N[C@@H](Cc2c[nH]c3c(F)cccc23)C(=O)N1C [SEQ ID NO. 263] ({CH2CO}-[hPhe]YS[Trp(7-F)][NMeA]N[4Pal]W[αMeS][Phe(4-COOH)]Y[Sar]WC-NH2; thioether N-14),,1.6,> 1000,2.88
